As a reminder, the inhibition is the relative decrease from the control value, in per cent. One may read the IC50 as the concentration at which inhibition is half-maximal. Higher therefore signals weaker potency in that assay.

Inhibition and IC50 data for 21 molecules are collected here from patent publication US20200247800A1, “SUBSTITUTED BICYCLIC HETEROCYCLIC COMPOUNDS AS NADPH OXIDASE INHIBITORS” (Glenmark Pharmaceuticals S.A., priority 2017, published 2020).

The test has as its target T1, human NOX4 (Homo sapiens, UniProt Q9NPH5).
T1 construct: expressed in transfected cells; membrane fraction used
T1 sequence (Q9NPH5 1-578): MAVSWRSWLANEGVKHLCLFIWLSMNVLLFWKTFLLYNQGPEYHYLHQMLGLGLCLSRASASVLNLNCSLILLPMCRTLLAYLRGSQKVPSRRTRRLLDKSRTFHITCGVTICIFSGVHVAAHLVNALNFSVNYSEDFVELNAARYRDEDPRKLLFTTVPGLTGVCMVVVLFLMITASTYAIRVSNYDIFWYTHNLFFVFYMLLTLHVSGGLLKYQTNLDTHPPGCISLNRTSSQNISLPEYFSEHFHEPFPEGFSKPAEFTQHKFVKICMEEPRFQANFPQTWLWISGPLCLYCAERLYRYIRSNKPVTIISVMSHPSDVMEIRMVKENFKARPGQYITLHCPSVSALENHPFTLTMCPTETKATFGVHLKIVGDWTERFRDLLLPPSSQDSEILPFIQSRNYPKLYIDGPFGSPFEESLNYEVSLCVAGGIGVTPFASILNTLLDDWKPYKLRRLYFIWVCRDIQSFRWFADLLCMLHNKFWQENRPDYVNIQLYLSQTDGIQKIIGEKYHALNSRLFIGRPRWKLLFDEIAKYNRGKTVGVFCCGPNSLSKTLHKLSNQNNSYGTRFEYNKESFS
T1 sequence (P13498 1-195 partner): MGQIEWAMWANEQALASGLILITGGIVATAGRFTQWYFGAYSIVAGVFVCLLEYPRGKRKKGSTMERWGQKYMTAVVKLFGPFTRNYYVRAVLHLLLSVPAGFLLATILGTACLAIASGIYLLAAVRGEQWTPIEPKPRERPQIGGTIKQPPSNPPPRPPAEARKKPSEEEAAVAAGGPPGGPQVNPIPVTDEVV
Description: Cell free membrane based in vitro NOX4 assay: H2O2 production by membranes expressing human NOX4, measured with Amplex Red. The test is classed as biochemical. The settings on record: for inhibition at 1 µM: 1.0 μM compound, read-out: Percentage inhibition at 1.0 μM; for inhibition at 10 µM: 10.0 μM compound, read-out: Percentage inhibition at 10.0 μM; for IC50: class symbols. On the procedure: The inhibition of NOX4 activity was measured as inhibition of formation of reactive oxygen species (ROS) from oxygen in cell free assays. […] A cell free membrane based in vitro assay was developed by preparing membranes from cells stably overexpressing human NOX4. hNOX4/HEK stable cell line was generated in-house for this purpose. Membranes from stably transfected cells overexpressing human NOX4 were prepared by homogenizing the cells in buffer (20 mM HEPES, 1 mM EGTA, 0.5 mM DTT, 0.5% protease inhibitor cocktail, 1 mM PMSF, pH 7.6), followed by centrifugation at 160000 g for 30 min. Membrane fraction (pellet) was resuspended in storage buffer (homogenization buffer with 10% glycerol and 100 mM NaCl) and stored at −80° C. Protein concentration was determined by Bradford reagent. H202 production by membranes expressing human NOX4 was measured using Amplex Red (Invitrogen) by following a slightly modified version of the manufacturer's instruction manual. Briefly, membranes were incubated in assay buffer (25 mM HEPES, 0.12 M NaCl, 3 mM KCl, 1 mM MgCl2, pH 7.4) with Horse Radish Peroxidase (HRP) and Amplex Red. Reaction was started by addition of […] to the membrane mix. Antagonism of NOX4 inhibitors was measured by incubating the membrane with increasing concentrations of the inhibitors for 20 min on a plate shaker prior to addition of NADPH. H2O2 levels were measured for 10 min in a BMG Fluostar microplate reader with excitation and emission wavelengths of 544 nm and 590 nm respectively. Concentration response curves were plotted as a % of maximal response obtained in the absence of the inhibitor. IC50 value was calculated from concentration response curve by nonlinear regression analysis using GraphPad PRISM software.

For `Cc1nn(CCN2CCOCC2)c2[nH]c(-c3ccccc3C(F)(F)F)c(O)c(=O)c12` [Example 152, 5-Hydroxy-3-methyl-1-(2-morpholinoethyl)-6-(2-(trifluoromethyl)phenyl)-1H-pyrazolo[3,4-b]pyridin-4(7H)-one], the inhibition at 1 µM turned out to be 93.5%, the inhibition at 10 µM was 89.9% and the IC50 was in the range of 0.1 to 0.15 µM.

Take `CCn1nc(C)c2c(=O)c(O)c(-c3cc(F)ccc3F)[nH]c21` [Example 81, 6-(2,5-Difluorophenyl)-1-ethyl-5-hydroxy-3-methyl-1H-pyrazolo[3,4-b]pyridin-4(7H)-one]: the inhibition at 1 µM worked out at 93.3%, the inhibition at 10 µM came to 81.5% and the IC50 is > 0.15 µM.

Consider `Cc1nn(CCN2CCOCC2)c2[nH]c(-c3c(F)cccc3F)c(O)c(=O)c12` [Example 88, 6-(2,6-Difluorophenyl)-5-hydroxy-3-methyl-1-(2-morpholinoethyl)-1H-pyrazolo[3,4-b]pyridin-4(7H)-one], for which the inhibition at 1 µM came to 100%, the inhibition at 10 µM amounted to 100% and the 50% inhibitory concentration (IC50) lay within 0.05 to 0.1 µM.

`CCCn1nc(CO)c2c(=O)c(O)c(-c3c(F)cccc3F)[nH]c21` [Example 182, 6-(2,6-Difluorophenyl)-5-hydroxy-3-(hydroxymethyl)-1-propyl-1H-pyrazolo[3,4-b]pyridin-4(7H)-one]: the inhibition at 1 µM came to 100%, the inhibition at 10 µM was found to be 100% and the IC50 fell in the range of 0.05 to 0.1 µM.

For `COCCOc1ccc(-c2[nH]c3c(c(C(F)(F)F)nn3C)c(=O)c2O)c(F)c1` [Example 66, 6-(2-Fluoro-4-(2-methoxyethoxy)phenyl)-5-hydroxy-1-methyl-3-(trifluoromethyl)-1H-pyrazolo[3,4-b]pyridin-4(7H)-one], the inhibition at 1 µM is 100%, the inhibition at 10 µM is 100% and the IC50 was > 0.15 µM.

As to `Cn1nc(C(F)(F)F)c2c(=O)c(O)c(-c3c(F)cccc3Cl)[nH]c21` [Example 45, 6-(2-Chloro-6-fluorophenyl)-5-hydroxy-1-methyl-3-(trifluoromethyl)-1,7-dihydro-4H-pyrazolo[3,4-b]pyridin-4-one], the inhibition at 1 µM came out at 89.1%, the inhibition at 10 µM worked out at 98.6% and the IC50 was 0.1 to 0.15 µM.

With `Cn1nc(CC2CCOCC2)c2c(=O)c(O)c(-c3c(F)cccc3F)[nH]c21` [Example 209, 6-(2,6-Difluorophenyl)-5-hydroxy-1-methyl-3-((tetrahydro-2H-pyran-4-yl)methyl)-1H-pyrazolo[3,4-b]pyridin-4(7H)-one], the inhibition at 1 µM was 89.5%, the inhibition at 10 µM was 89.8% and the IC50 fell in the range of 0.05 to 0.1 µM.

`Cc1nn(-c2ccc(F)cc2)c2oc(-c3ccccc3Cl)c(O)c(=O)c12` [Example 231, 6-(2-Chlorophenyl)-1-(4-fluorophenyl)-5-hydroxy-3-methylpyrano[2,3-c]pyrazol-4(1H)-one]: the inhibition at 1 µM is 12.5% and the inhibition at 10 µM was found to be 9.39%.

Turning to `O=c1c(O)c(-c2c(F)cccc2F)[nH]c2c1c(CO)nn2CC1CCOCC1` [Example 215, 6-(2,6-difluorophenyl)-5-hydroxy-3-(hydroxymethyl)-1-((tetrahydro-2H-pyran-4-yl)methyl)-1H-pyrazolo[3,4-b]pyridin-4(7H)-one], the inhibition at 1 µM was found to be 78.8%, the inhibition at 10 µM worked out at 87.3% and the IC50 lay in the range of 0.1 to 0.15 µM.

`CCc1nn(C)c2[nH]c(-c3ccc(F)cc3F)c(O)c(=O)c12` [Example 161, 6-(2,4-Difluorophenyl)-3-ethyl-5-hydroxy-1-methyl-1H-pyrazolo[3,4-b]pyridin-4(7H)-one]: the inhibition at 1 µM was found to be 71.6% and the IC50 is > 0.15 µM.

Consider `Cn1nc(C(F)(F)F)c2c(=O)c(O)c(-c3ccncc3)[nH]c21` [Example 55, 5-Hydroxy-1-methyl-6-(pyridin-4-yl)-3-(trifluoromethyl)-1,7-dihydro-4H-pyrazolo[3,4-b]pyridin-4-one], for which the inhibition at 1 µM was 83.8%, the inhibition at 10 µM came out at 94.2% and the IC50 is > 0.15 µM.

Consider `NC(=O)c1nsc2c(=O)c(O)c(-c3ccccc3Cl)[nH]c12` [Example 78, 5-(2-Chlorophenyl)-6-hydroxy-7-oxo-4,7-dihydroisothiazolo[4,5-b]pyridine-3-carboxamide], for which the inhibition at 1 µM is 55.3%, the inhibition at 10 µM was 89.3% and the IC50 was > 0.15 µM.

Take `O=c1c(O)c(-c2ccccc2Cl)[nH]c2c1cnn2-c1ccc(F)cc1` [Example 10, 6-(2-Chlorophenyl)-1-(4-fluorophenyl)-5-hydroxy-1,7-dihydro-4H-pyrazolo[3,4-b]pyridin-4-one]: the inhibition at 1 µM came out at 100%, the inhibition at 10 µM came out at 100% and the IC50 is < 0.05 µM.

For `COc1ccc(-c2[nH]c3c(c(C)nn3-c3ccc(F)cc3)c(=O)c2O)c(F)c1` [Example 38, 6-(2-Fluoro-4-methoxyphenyl)-1-(4-fluorophenyl)-5-hydroxy-3-methyl-1,7-dihydro-4H-pyrazolo[3,4-b]pyridin-4-one], the inhibition at 1 µM amounted to 87.5%, the inhibition at 10 µM turned out to be 86.1% and the IC50 was in the range of 0.1 to 0.15 µM.

Take `CCc1nn(CCC2CCOCC2)c2[nH]c(-c3ccccc3Cl)c(O)c(=O)c12` [Example 212, 6-(2-Chlorophenyl)-3-ethyl-5-hydroxy-1-(2-(tetrahydro-2H-pyran-4-yl)ethyl)-1H-pyrazolo[3,4-b]pyridin-4(7H)-one]: the inhibition at 1 µM is 81.5%, the inhibition at 10 µM turned out to be 71.7% and the IC50 was > 0.15 µM.

In the case of `COc1ccc(-c2[nH]c3c(c(C)nn3Cc3ccccc3)c(=O)c2O)c(F)c1` [Example 77, 1-Benzyl-6-(2-fluoro-4-methoxyphenyl)-5-hydroxy-3-methyl-1H-pyrazolo[3,4-b]pyridin-4(7H)-one], the inhibition at 1 µM was found to be 88.9%, the inhibition at 10 µM is 72.1% and the IC50 lay in the range of 0.1 to 0.15 µM.

`Cc1nn(C)c2[nH]c(-c3ccc(OC(F)(F)F)c(F)c3)c(O)c(=O)c12` [Example 16, 6-[3-Fluoro-4-(trifluoromethoxy)phenyl]-5-hydroxy-1,3-dimethyl-1,7-dihydro-4H-pyrazolo[3,4-b]pyridin-4-one]: the inhibition at 1 µM stood at 99.7% and the IC50 was > 0.15 µM.

For `CCn1nc(C)c2c(=O)c(OC)c(-c3c(F)cccc3F)[nH]c21` [Example 234], the inhibition at 1 µM was found to be 25.8% and the inhibition at 10 µM was determined as 70.2%.

`O=c1c(O)c(-c2c(F)cccc2F)[nH]c2c1c(CO)nn2CCC1CCOCC1` [Example 217, 6-(2,6-difluorophenyl)-5-hydroxy-3-(hydroxymethyl)-1-(2-(tetrahydro-2H-pyran-4-yl)ethyl)-1H-pyrazolo[3,4-b]pyridin-4(7H)-one]: the inhibition at 1 µM came to 83.8%, the inhibition at 10 µM is 89.7% and the IC50 lay in the range of 0.1 to 0.15 µM.

With `Cn1nc(C(F)(F)F)c2c(=O)c(O)c(-c3ccc(NS(C)(=O)=O)cc3F)[nH]c21` [Example 237, N-{3-Fluoro-4-[5-hydroxy-1-methyl-4-oxo-3-(trifluoromethyl)-4,7-dihydro-1H-pyrazolo[3,4-b]pyridin-6-yl]phenyl}methanesulfonamide], the inhibition at 1 µM turned out to be 60.9%, the inhibition at 10 µM worked out at 74.3% and the IC50 was > 0.15 µM.

On to `Cc1nn(C)c2[nH]c(-c3cc(Cl)ccc3Cl)c(O)c(=O)c12` [Example 20, 6-(2,5-Dichlorophenyl)-5-hydroxy-1,3-dimethyl-1,7-dihydro-4H-pyrazolo[3,4-b]pyridin-4-one], for which the inhibition at 1 µM was determined as 95.9%, the inhibition at 10 µM was 96.1% and the IC50 was < 0.05 µM.
